# Measured values as given in patent US8481732B2 (Incyte Corporation, priority 2009, dated 2013).
# Target: T1, histamine H4 receptor (Homo sapiens, UniProt Q9H3N8)
# T1 construct: expressed in transfected cells; host or cells: HEK293SFM cells (membrane preparation)
# Experiment: H4 Membrane Binding Assay (3H-Histamine displacement)
# Settings: membranes of recombinant HEK293SFM cells, 10 nM 3H-Histamine, 1.5 hr at room temperature
# Description: Recombinant HEK293SFM cells expressing human H1, H2, H3, H4 or mouse H4 were harvested (Packard Filtermate Harvester) in ice-cold Tris-HCl, (50 mM, pH 7.5, Sigma) with protease inhibitors (Roche) and homogenized with a Polytron homogenizer. The homogenate was centrifuged for 5 minutes at 1000 g to remove nuclei and unbroken cells. The supernatant was centrifuged at 50000 g for 30 minutes, and the resulting pellet was re-suspended in ice-cold Tris-HCl (50 mM, pH 7.5). […] Nonspecific binding was determined by inclusion of 1000× unlabeled ligands. The bound radioactivity was separated by filtration through polyethyleneimine-treated GF/B filters (Perkin Elmer). The filters were washed eight times with ice-cold Tris-HCl (50 mM, pH 7.5), and radioactivity retained on the filters was measured by liquid scintillation counting. The binding data were evaluated with Prism.
# T1 sequence (Q9H3N8 whole entry): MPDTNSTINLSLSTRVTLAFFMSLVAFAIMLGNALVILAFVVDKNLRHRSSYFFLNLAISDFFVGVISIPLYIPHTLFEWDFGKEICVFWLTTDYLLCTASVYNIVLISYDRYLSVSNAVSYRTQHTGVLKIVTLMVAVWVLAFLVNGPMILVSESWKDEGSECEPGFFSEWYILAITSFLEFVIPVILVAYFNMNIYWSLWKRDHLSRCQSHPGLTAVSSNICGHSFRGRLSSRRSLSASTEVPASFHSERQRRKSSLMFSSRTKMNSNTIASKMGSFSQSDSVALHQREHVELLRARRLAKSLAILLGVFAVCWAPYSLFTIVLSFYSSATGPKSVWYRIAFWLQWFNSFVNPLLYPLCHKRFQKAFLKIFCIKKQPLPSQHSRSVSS
row,Structure (SMILES),IC50 [nM]
1,"CN1CCN(c2nc(N)nc3cc(C(=O)N[C@@H](Cc4ccc(-c5ccc(C#N)cn5)cc4)C(=O)N(C)C)ccc23)CC1 [Example 155, 2-Amino-N-[(1S)-1-[4-(5-cyanopyridin-2-yl)benzyl]-2-(dimethylamino)-2-oxoethyl]-4-(4-methylpiperazin-1-yl)quinazoline-7-carboxamide]",55
2,"CC(NC(=O)N1CCc2ccc(-c3cc(N4CCN(C)CC4)nc(N)n3)cc2C1)c1ccccc1 (stereo not shown) [Example 51, 7-[2-Amino-6-(4-methylpiperazin-1-yl)pyrimidin-4-yl]-N-(1-phenylethyl)-3,4-dihydroisoquinoline-2(1H)-carboxamide]",63
3,"CN1CCN(c2cc(-c3ccc4c(c3)CN(C(=O)NC3CCCCC3)CC4)nc(N)n2)CC1 [Example 95, 7-[2-Amino-6-(4-methylpiperazin-1-yl)pyrimidin-4-yl]-N-cyclohexyl-3,4-dihydroisoquinoline-2(1H)-carboxamide]",24
4,"CN1CCN(c2nc(N)nc3cc(C(=O)NCc4ccc(Cl)c(Cl)c4)ccc23)CC1 [Example 131, 2-Amino-N-(3,4-dichlorobenzyl)-4-(4-methylpiperazin-1-yl)quinazoline-7-carboxamide]",17
5,"CNC(=O)c1ccc(-c2ccc(N3CCc4ccc(-c5cc(N6CCN(C)CC6)nc(N)n5)cc4C3)nc2)cc1 [Example 19, 4-{6-[7-[2-Amino-6-(4-methylpiperazin-1-yl)pyrimidin-4-yl]-3,4-dihydroisoquinolin-2(1H)-yl]pyridin-3-yl}-N-methylbenzamide]",508
6,"CCOC(=O)[C@@H]1CCCC[C@@H]1NC(=O)N1CCc2ccc(-c3cc(N4CCN(C)CC4)nc(N)n3)cc2C1 (relative stereo) [Example 53, Ethyl cis-2-({[7-[2-amino-6-(4-methylpiperazin-1-yl)pyrimidin-4-yl]-3,4-dihydroisoquinolin-2(1H)-yl]carbonyl}amino)cyclohexanecarboxylate]",107
7,"CN1CCN(c2nc(N)nc3cc(C(=O)N[C@@H](Cc4ccc(-c5ccc(F)c(C(F)(F)F)c5)cc4)C(=O)N(C)C)ccc23)CC1 [Example 159, 2-Amino-N-((1S)-2-(dimethylamino)-1-{[4′-fluoro-3′-(trifluoromethyl)biphenyl-4-yl]methyl}-2-oxoethyl)-4-(4-methylpiperazin-1-yl)quinazoline-7-carboxamide]",26
8,"COc1ccc(NC(=O)N2CCc3ccc(-c4cc(N5CCN(C)CC5)nc(N)n4)cc3C2)cn1 [Example 46, 7-[2-Amino-6-(4-methylpiperazin-1-yl)pyrimidin-4-yl]-N-(6-methoxypyridin-3-yl)-3,4-dihydroisoquinoline-2(1H)-carboxamide]",70
9,"CN1CCN(c2cc(-c3ccc4c(c3)CN(C(=O)N[C@H]3C[C@@H]3c3ccccc3)CC4)nc(N)n2)CC1 (relative stereo) [Example 49, 7-[2-Amino-6-(4-methylpiperazin-1-yl)pyrimidin-4-yl]-N-(trans-2-phenylcyclopropyl)-3,4-dihydroisoquinoline-2(1H)-carboxamide]",47
10,"Cc1ccnc(Oc2cccc(CNC(=O)c3ccc4c(N5CCN(C)CC5)nc(N)nc4c3)c2)c1 [Example 182, 2-Amino-4-(4-methylpiperazin-1-yl)-N-{3-[(4-methylpyridin-2-yl)oxy]benzyl}quinazoline-7-carboxamide]",56
11,"COc1ccc(Oc2cccc(CNC(=O)c3ccc4c(N5CCN(C)CC5)nc(N)nc4c3)c2)cc1 [Example 178, 2-Amino-N-[3-(4-methoxyphenoxy)benzyl]-4-(4-methylpiperazin-1-yl)quinazoline-7-carboxamide]",7.5
12,"CN1CCN(c2cc(-c3ccc4c(c3)CN(C(=O)Nc3ccc(-n5cccn5)cc3)CC4)nc(N)n2)CC1 [Example 93, 7-[2-Amino-6-(4-methylpiperazin-1-yl)pyrimidin-4-yl]-N-[4-(1H-pyrazol-1-yl)phenyl]-3,4-dihydroisoquinoline-2(1H)-carboxamide]",43
13,"CC(CC(=O)N1CCc2ccc(-c3cc(N4CCN(C)CC4)nc(N)n3)cc2C1)C(F)(F)F (stereo not shown) [Example 62, 4-(4-Methylpiperazin-1-yl)-6-[2-(4,4,4-trifluoro-3-methylbutanoyl)-1,2,3,4-tetrahydroisoquinolin-7-yl]pyrimidin-2-amine]",24
14,"COC(=O)c1ccc(Oc2cccc(CNC(=O)c3ccc4c(N5CCN(C)CC5)nc(N)nc4c3)c2)cc1 [Example 179, Methyl 4-{3-[({[2-amino-4-(4-methylpiperazin-1-yl)quinazolin-7-yl]carbonyl}amino)methyl]phenoxy}benzoate]",46
15,"CN1CCN(c2cc(-c3ccc4c(c3)CN(C(=O)CC3CCCC3)CC4)nc(N)n2)CC1 [Example 41, 4-[2-(Cyclopentylacetyl)-1,2,3,4-tetrahydroisoquinolin-7-yl]-6-(4-methylpiperazin-1-yl)pyrimidin-2-amine]",28
16,"CN1CCN(c2cc(-c3ccc4c(c3)CN(C(=O)OC3CCCC3)CC4)nc(N)n2)CC1 [Example 7, Cyclopentyl 7-[2-amino-6-(4-methylpiperazin-1-yl)pyrimidin-4-yl]-3,4-dihydroisoquinoline-2(1H)-carboxylate]",43.3
17,"CC(NC(=O)N1CCc2ccc(-c3cc(N4CCN(C)CC4)nc(N)n3)cc2C1)c1cccnc1 (stereo not shown) [Example 126, 7-[2-Amino-6-(4-methylpiperazin-1-yl)pyrimidin-4-yl]-N-(1-pyridin-3-ylethyl)-3,4-dihydroisoquinoline-2(1H)-carboxamide]",569
18,"Cc1ccc(C#N)c(Oc2cccc(CC(NC(=O)c3ccc4c(N5CCN(C)CC5)nc(N)nc4c3)C(=O)N(C)C)c2)n1 (stereo not shown) [Example 173, 2-Amino-N-[1-{3-[(3-cyano-6-methylpyridin-2-yl)oxy]benzyl}-2-(dimethylamino)-2-oxoethyl]-4-(4-methylpiperazin-1-yl)quinazoline-7-carboxamide]",67
19,"CN1CCN(c2nc(N)nc3cc(C(=O)NC(Cc4ccc5c(c4)OC(F)(F)O5)C(=O)N(C)C)ccc23)CC1 (single isomer, unassigned) [Example 145B, 2-Amino-N-(3-(2,2-difluorobenzo[d][1,3]dioxol-5-yl)-1-(dimethylamino)-1-oxopropan-2-yl)-4-(4-methylpiperazin-1-yl)quinazoline-7-carboxamide]",26
20,"CN1CCN(c2cc(-c3ccc4c(c3)CN(c3ccc(C#N)c(F)c3)CC4)nc(N)n2)CC1 [Example 15, 4-{7-[2-Amino-6-(4-methylpiperazin-1-yl)pyrimidin-4-yl]-3,4-dihydroisoquinolin-2(1H)-yl}-2-fluorobenzonitrile]",39
21,"CN1CCN(c2nc(N)nc3cc(C(=O)N[C@@H](Cc4ccc(-c5cccc(Cl)c5Cl)cc4)C(=O)N(C)C)ccc23)CC1 [Example 162, 2-Amino-N-[(1S)-1-[(2′,3′-dichlorobiphenyl-4-yl)methyl]-2-(dimethylamino)-2-oxoethyl]-4-(4-methylpiperazin-1-yl)quinazoline-7-carboxamide]",10
22,"CN1CCN(c2nc(N)nc3cc(C(=O)NC(C)(C)c4ccccc4)ccc23)CC1 [Example 23, 2-Amino-N-(1-methyl-1-phenylethyl)-4-(4-methylpiperazin-1-yl)quinazoline-7-carboxamide]",384
